# Results from publication PMC8958510 (Journal of Medicinal Chemistry, 2022).
# What was measured:
# human serum BChE = target: T1, human serum BChE (Homo sapiens, UniProt P06276); format: biochemical
# T1 construct: human serum BChE (Sigma-Aldrich, Milan, Italy) was assessed by Ellman’s method; purchased Sigma-Aldrich, Milan, Italy; host or cells: human serum
# Protocol: Human and mouse acetylcholinesterase and human butyrylcholinesterase inhibition
# assay. The inhibitory activity of the target compounds toward recombinant human AChE
# (Sigma-Aldrich, Milan, Italy), recombinant mouse AChE (Bio-Techne, Milan, Italy) and
# human serum BChE (Sigma-Aldrich, Milan, Italy) was assessed by Ellman’s method,8 using
# Stock solutions of the AChEs were prepared by
# dissolving enzyme lyophilized powder (hAChE) or diluting the enzyme commercial solution
# (mAChE) in 0.1 M potassium phosphate (pH 8.0) containing 0.1% Triton X-100, whereas the
# stock solution of hBChE was prepared in 0.1% aq. gelatin and the stock solutions of the
# compounds to be tested were made in MeOH (2-4 mM). The assay solution consisted of 0.02
# unit mL‒1 of the enzyme, 340 M 5,5’-dithiobis(2-nitrobenzoic acid), and 550 M of the
# substrate acetylthiocholine iodide (for AChE assay) or butyrylthiocholine iodide (for BChE
# assay) in 0.1 M potassium phosphate (pH 8.0). Blank solutions containing all components
# except the enzymes were prepared to account for the non-enzymatic hydrolysis of the
# Prior the addition of the substrate, the assay solutions were incubated at 37 °C for 20 min.
# After the addition of the substrate, cuvettes were rapidly transferred into a Jasco V-530
# double beam spectrophotometer equipped with thermostated cuvette holders (37 °C), in order
# for 240 s. For each tested compound, five increasing concentrations were assayed in order to
# achieve inhibition percentages of 20‒80%. Each concentration was assayed in triplicate. IC50
# values were calculated from the inhibition plot (% inhibition vs log[inhibitor]) and are
# expressed as mean ± SEM. Each IC50 value is the average of at least two experiments, each
# SH-SY5Y cells = assay: Cytotoxicity in SH-SY5Y cells, propidium iodide stain; format: cell-based, human
# Protocol: Cytotoxicity in SH-SY5Y cells. The cytotoxicity of the target compounds was evaluated in
# Minimum Essential Medium / Ham’s-F12 (1:1, v/v) medium (Biowest), supplemented with
# non-essential amino acids, 10% fetal bovine serum, 1 mM glutamine and 50 µg mL‒1
# gentamycin (all reagents from Gibco, Thermo Fisher Scientific). For the experiments, cells
# were seeded at 3 × 10^5 cells mL‒1 (100 µL per well) in 96-well plates (Nunc). After 24 h, the
# test compounds were added concentrated from stock solutions in DMSO and culture medium
# to triplicate wells to obtain the final different concentrations up to 100 µM in 0.1% DMSO.
# Compounds were incubated for further 24 h. At termination, cytotoxicity was analyzed by the
# propidium iodide (PI) fluorescence stain assay. All compounds were tested in three
# independent experiments using different cell passages. The PI assay measures cell death. PI
# enters into the cells with damaged membranes and greatly increases the fluorescence upon
# binding to DNA. PI reagent (Molecular Probes) at the final concentration of 7.5 µg mL‒1 was
# added to the cells and incubated for 1 h. The resulting fluorescence was measured by a Flx-
# death induced by the compounds was calculated from to the fluorescence of treated cells (Ft)
# relative to that of control cells (Fmin) and cells incubated with Triton X100 (Fmax) as the 0%
# and 100% cell death, respectively [% = ((Ft-Fmin)/(Fmax-Fmin)) × 100]. All compounds
# were tested in three independent experiments using different cell passages. LC50 values were
# calculated for each experiment and the results are expressed as mean ± SD.
# [1] = tested on: hippocampus of SAMP8 mice; assay: Hippocampal protein levels by western blot in SAMP8 mice; format: in vivo, mouse; conditions: 2 mg kg^–1 day^–1 oral, 4 weeks, vs control
# From the text: In Vivo Proof-of-Concept of the Dual sEH / AChE Inhibitor […] in SAMP8 Mice Animals and treatment. The senescence-accelerated mouse-prone 8 (SAMP8) is an accelerated aging model established through phenotypic selection from AKR/J mice by […]
# abnormal APP and β-amyloid processing and tau pathology, among others. Likewise, SAMP8 […]
# and oxidative stress markers are present at early ages and during adultness.15 In this work, 5-month-old male SAMP8 mice were used to perform behavioral and molecular analyses.
# Animals were randomly divided into SAMP8 control (n=8) and SAMP8 treated with 12c […]
# (n=8, 2 mg kg‒1 day‒1). The animals had free access to food and water and were kept under standard temperature conditions (22 ± 2 °C) and 12-h/12-h light/dark cycles (300 lux/0 lux).
# Compound 12c was dissolved in 1.8% (2-hydroxypropyl)-β-cyclodextrin (Sigma-Aldrich, St.
# Louis, MO) and administered through drinking water for 4 weeks (Figure S6 of the Supporting Information). Control groups received water plus 1.8% (2-hydroxypropyl)-β-cyclodextrin during the treatment period. After 4 weeks of treatment, behavioral and cognitive tests were performed to study the effects of treatment on working memory. Drug administration was continued until euthanasia by cervical dislocation, three days after the cognitive tests were completed. The brains were immediately removed from the skulls and the hippocampi were dissected, frozen and maintained at ‒80 °C.
# Weight and water consumption were controlled each week, and compound concentration was adjusted accordingly to reach the optimal dose. Mice were treated according to European Community Council Directive 86/609/EEC and were approved by the Institutional Animal Care and Use Committee of the University of Barcelona (670/14/8102) and by Generalitat de Catalunya, Spain (10291). All studies and procedures for the behavioral tests, brain dissection and extractions followed the ARRIVE. Every effort was made to minimize animal suffering and to reduce the number of animals. […]
# Exploration was defined as sniffing or touching the objects with the nose and/or forepaws.
# The discrimination index (DI) was calculated as (TN‒TO)/(TN+TO). To avoid object preference biases, objects were alternated. 70% EtOH was used to clean the arms and objects after each trial for the elimination of olfactory cues.
# Molecular analyses. Immunodetection experiments by western blot. The hippocampal tissue from each animal was homogenized in lysis buffer (Tris HCl pH 7.4 mM, NaCl 150 mM, EDTA 5 mM and 1X-Triton X-100) containing phosphatase and protease inhibitors (Cocktail II, Sigma-Aldrich, St. Louis, MO, USA) to obtain total protein homogenates. The Bradford technique was used to determine total protein concentration. Aliquots of 15 μg of total hippocampal protein were used and separated by sodium dodecyl sulfate-polyacrylamide gel […] (SDS-PAGE) (8‒20%) and transferred into polyvinylidene difluoride (PVDF) membranes (Merck-Millipore, Burlington, MA, USA) for 2 h. The membranes were blocked in 5% non-fat milk in TRIS-buffered saline (TBS) containing 0.1% Tween 20 (TBS-T, Sigma-Aldrich, St. Louis, MO, USA) for 1 h at room temperature, and then, overnight […]
# membranes were washed with TBS-T 3 times for 5 min and incubated with secondary antibodies for 1 h at room temperature. Immunoreactive protein was viewed with a Chemiluminescence-based detection kit, following the manufacturer’s protocol (ECL Kit; Merck-Millipore), and digital images were acquired using a ChemiDoc XRS+ System (BioRad lab, Hercules, CA, USA). Semi-quantitative analyses were done using ImageLab Software (BioRad Lab), and results were expressed in Arbitrary Units (AU) considering control protein levels as 100%. Protein loading was routinely monitored by immunodetection of glyceraldehyde-3-phosphate dehydrogenase (GADPH).
# recombinant human sEH = target: T2, recombinant human sEH (Homo sapiens, UniProt P34913); assay: Human soluble epoxide hydrolase inhibition, fluorescence-based assay (CMNPC substrate); format: biochemical; conditions: recombinant human sEH; average of three replicates; read-out: hsEH IC50
# T2 sequence (P34913 1-555): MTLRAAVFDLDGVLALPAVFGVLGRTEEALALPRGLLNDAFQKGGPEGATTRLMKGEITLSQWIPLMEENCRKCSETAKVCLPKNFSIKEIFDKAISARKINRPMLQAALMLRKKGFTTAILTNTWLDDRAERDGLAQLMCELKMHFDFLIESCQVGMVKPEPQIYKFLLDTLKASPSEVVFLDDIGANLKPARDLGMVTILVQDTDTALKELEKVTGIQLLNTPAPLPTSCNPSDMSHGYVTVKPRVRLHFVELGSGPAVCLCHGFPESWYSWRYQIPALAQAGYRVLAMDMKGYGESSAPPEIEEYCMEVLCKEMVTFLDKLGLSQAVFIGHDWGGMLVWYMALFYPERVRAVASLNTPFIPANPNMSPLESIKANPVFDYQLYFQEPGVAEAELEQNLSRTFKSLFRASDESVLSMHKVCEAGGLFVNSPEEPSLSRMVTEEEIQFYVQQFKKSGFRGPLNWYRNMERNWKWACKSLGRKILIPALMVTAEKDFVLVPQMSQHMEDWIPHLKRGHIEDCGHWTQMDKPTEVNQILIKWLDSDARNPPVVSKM
# Protocol: Human and mouse soluble epoxide hydrolase inhibition assay. The inhibitory activity of
# the target compounds toward human and mouse sEH was determined by a fluorescence-based
# assay, using purified recombinant human or mouse sEH proteins and CMNPC as a fluorescent
# substrate.6 The enzymes were incubated at 30 °C with the inhibitors ([I]final = 0.4-100,000
# nM) for 5 min in 100 mM sodium phosphate buffer (200 µL, pH 7.4) containing 0.1 mg mL‒1
# of BSA and 1% of DMSO. The substrate (CMNPC) was then added ([S]final = 5 µM). Activity
# was assessed by measuring the appearance of the fluorescent 6-methoxynaphthaldehyde
# (Molecular Devices). Results were obtained by regression analysis from a linear region of the
# curve and are given as IC50 values, i.e., the concentration of the compound that reduces the
# sEH activity by 50%. All measurements were performed in triplicate and the mean is
# T1 sequence (P06276 29-602): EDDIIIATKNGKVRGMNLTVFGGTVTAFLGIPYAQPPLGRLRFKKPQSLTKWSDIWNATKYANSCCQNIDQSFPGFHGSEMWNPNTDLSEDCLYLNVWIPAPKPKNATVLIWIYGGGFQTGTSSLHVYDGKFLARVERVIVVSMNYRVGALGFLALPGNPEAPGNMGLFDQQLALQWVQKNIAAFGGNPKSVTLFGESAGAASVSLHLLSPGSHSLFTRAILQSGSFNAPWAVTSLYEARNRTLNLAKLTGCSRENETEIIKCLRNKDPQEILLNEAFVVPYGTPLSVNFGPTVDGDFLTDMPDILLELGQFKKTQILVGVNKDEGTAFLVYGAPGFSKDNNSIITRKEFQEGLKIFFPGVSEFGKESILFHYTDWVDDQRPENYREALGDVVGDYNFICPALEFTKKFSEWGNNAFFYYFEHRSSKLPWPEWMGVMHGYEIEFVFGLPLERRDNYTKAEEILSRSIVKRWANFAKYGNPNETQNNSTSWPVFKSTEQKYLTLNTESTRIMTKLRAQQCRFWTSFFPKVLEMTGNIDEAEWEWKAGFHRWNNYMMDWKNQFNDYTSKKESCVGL
smiles,measurement,setting,value
"O=C(Nc1ccc(OC(F)(F)F)cc1)NC1CCN(C(=O)CCCCNc2c3c(nc4cc(Cl)ccc24)CCCC3)CC1 [12c, 1-{1-{5-[(6-Chloro-1,2,3,4-tetrahydroacridin-9-yl)amino]pentanoyl}piperidin-4-yl}-3-[4-(trifluoromethoxy)phenyl]urea]",hBChE potency relative to 6-chlorotacrine,human serum BChE,3 fold
same,IC50,"human serum BChE; human serum BChE, mean ± SEM, n.a. = not active, % inhibition <10% at 100 μM, read-out: hBChE IC50",179 ± 90 nM
same,toxicity to SH-SY5Y cells LD50,"SH-SY5Y cells; propidium iodide staining after 24 h of incubation, mean ± SD",>100 µM
same,LD50 (SH-SY5Y),SH-SY5Y cells; supplementary CSV,> 100 ?M
same,hippocampal levels of synaptophysin (SYN),[1],significantly increased
same,hippocampal protein levels of NFkβ,[1],reduced in mice treated with 12c relative to untreated mice but without reaching statistical significance
same,hippocampal protein levels of sAPPα,[1],significant increase
same,hippocampal protein levels of sAPPβ,[1],tendency toward reduced levels
same,tau phosphorylation at Ser396,[1],significant site-specific reduction
same,tau phosphorylation at Ser404,[1],slightly decreased phosphorylation
same,IC50,recombinant human sEH,4.6 nM
